Where two headings read alike, the source gives them in different places.
Key:
[1] = cited from earlier work
[2] = cited from earlier work; remark: listed apart in the source
[3] = Kinetic solubility of neratinib maleate ASD powders, pH 4.0 phthalic acid buffer; type: physicochemical; details: pH 4.0 phthalic acid buffer solution, 37 °C, pH 4, aqueous buffer, thermodynamic from solid; crystalline
[4] = system: EGFR and/or HER2 expressing carcinoma cell lines; details: in vitro; cited from earlier work
HER2 autophosphorylation = details: in vitro; cited from earlier work
EGFR autophosphorylation = details: in vitro; cited from earlier work
AKT signaling pathway = details: in vitro; cited from earlier work
MAPK signaling pathway = details: in vitro; cited from earlier work
[5] = second value listed in the cell

Compound | Measured or Calculated pKas ([1]; first value listed in the cell) | Measured or Calculated pKas [1, 5] | also measured
Cc1nc(NC(=O)N2CCC[C@H]2C(N)=O)sc1-c1ccnc(C(C)(C)C(F)(F)F)c1 [Alpelisib] | 3.3 | 9.4 | –
CC1(C)S[C@@H]2[C@H](NC(=O)[C@H](N)c3ccc(O)cc3)C(=O)N2[C@H]1C(=O)O [Amoxicillin] | 3.39 | 6.71 | –
Cn1cc(-c2cc3c(N4CCN(c5ncc([C@@](C)(N)c6ccc(F)cc6)cn5)CC4)ncnn3c2)cn1 [Avapritinib] | 6.97 | 4.57 | Measured or Calculated pKas ([1]; fourth value listed in the cell): 1.51; Measured or Calculated pKas ([1]; third value listed in the cell): 3.50
CCC(C(=O)O)c1ccc(CC(C)C)cc1 (stereo not drawn) [Butibufen] | 4.64 | – | –
CC(C(=O)O)c1ccc2c(c1)[nH]c1ccc(Cl)cc12 (stereo not drawn) [Carprofen] | 4.63 | – | –
CN(C)[C@@H]1C(O)=C(C(N)=O)C(=O)[C@@]2(O)C(O)=C3C(=O)c4c(O)ccc(Cl)c4[C@@](C)(O)[C@H]3C[C@@H]12 [Chlortetracycline] | 3.33 ± 0.30 | 7.55 ± 0.02 | –
CC[C@H]1OC(=O)[C@H](C)[C@@H](O[C@H]2C[C@@](C)(OC)[C@@H](O)[C@H](C)O2)[C@H](C)[C@@H](O[C@@H]2O[C@H](C)C[C@H](N(C)C)[C@H]2O)[C@](C)(OC)C[C@@H](C)C(=O)[C@H](C)[C@@H](O)[C@]1(C)O [Clarithromycin] | 7.25 | – | –
CN1C[C@@H]2C[C@H]1CN2c1cc2c(cc1F)c(=O)c(C(=O)O)cn2C1CC1 [Danofloxacin] | 6.07 ± 0.06 | 8.56 ± 0.07 | –
CC(O)c1cc(C(=O)N[C@@H](C)Cn2ccc(-c3ccc(C#N)c(Cl)c3)n2)[nH]n1 (stereo partly drawn) [Darolutamide] | 11.75 | – | –
CN(C)[C@@H]1C(O)=C(C(N)=O)C(=O)[C@@]2(O)C(O)=C3C(=O)c4c(O)ccc(Cl)c4[C@@H](O)[C@H]3C[C@@H]12 [Demeclocycline] | 3.37 ± 0.30 | 7.36 ± 0.03 | –
O=C(O)Cc1ccccc1Nc1c(Cl)cccc1Cl [Diclofenac] | 4.16 | – | –
CN1CCN(c2cc3c(cc2F)c(=O)c(C(=O)O)cn3-c2ccc(F)cc2)CC1 [Difloxacin] | 5.66 ± 0.04 | 7.24 ± 0.06 | –
C[C@H]1c2cccc(O)c2C(=O)C2=C(O)[C@]3(O)C(=O)C(C(N)=O)=C(O)[C@@H](N(C)C)[C@@H]3[C@@H](O)[C@@H]21 [Doxycycline] | 3.02 ± 0.30 | 7.97 ± 0.15 | –
CCn1cc(C(=O)O)c(=O)c2cc(F)c(N3CCNCC3)nc21 [Enoxacin] | 5.05 ± 0.08 | 6.25 ± 0.05 | –
CCN1CCN(c2cc3c(cc2F)c(=O)c(C(=O)O)cn3C2CC2)CC1 [Enrofloxacin] | 5.88 ± 0.03 | 7.74 ± 0.03 | –
CNC(=O)c1ccc(N2C(=S)N(c3ccc(C#N)c(C(F)(F)F)c3)C(=O)C2(C)C)cc1F [Enzalutamide] | 3-11 | – | –
C#Cc1cccc(Nc2ncnc3cc(OCCOC)c(OCCOC)cc23)c1.Cl [Erlotinib] | 5.4 | – | –
CN1CCN(c2c(F)cc3c(=O)c(C(=O)O)cn(CCF)c3c2F)CC1 [Fleroxacin] | 5.46 | 8.00 | –
CC(C(=O)O)c1ccc(-c2ccccc2)c(F)c1 (stereo not drawn) [Flurbiprofen] | 4.35 | – | –
COc1cc2ncnc(Nc3ccc(F)c(Cl)c3)c2cc1OCCCN1CCOCC1 [Gefitinib] | 7.2 | – | –
CC(C)Cc1ccc(C(C)C(=O)O)cc1 (stereo not drawn) [Ibuprofen] | 4.51 | – | –
CC(CCc1ccccc1)NCC(O)c1ccc(O)c(C(N)=O)c1 (stereo not drawn) [Labetalol] | 7.35 | – | –
CN1CCN(c2c(F)cc3c(=O)c(C(=O)O)cn4c3c2OCN4C)CC1 [Marbofloxacin] | 5.69 ± 0.10 | 8.02 ± 0.20 | –
C=C1c2c(Cl)ccc(O)c2C(=O)C2=C(O)[C@]3(O)C(=O)C(C(N)=O)=C(O)[C@@H](N(C)C)[C@@H]3[C@@H](O)[C@H]12 [Meclocycline] | 4.05 ± 0.30 | 6.87 ± 0.39 | –
CCOc1cc2ncc(C#N)c(Nc3ccc(OCc4ccccn4)c(Cl)c3)c2cc1NC(=O)/C=C/CN(C)C.O=C(O)/C=C\C(=O)O [Neratinib maleate, (E)-N-(4-((3-chloro-4-(pyridin-2-ylmethoxy)phenyl)amino)-3-cyano-7-ethoxyquinolin-6-yl)-4-(dimethylamino)but-2-enamide maleate] | – | – | solubility ([2]; pH 1.2): 32900 µg/mL; solubility according to the product label ([2]; pH 1.2): sparingly soluble; solubility according to the product label ([2]; pH 5.0): insoluble; solubility ([2]; pH approximately 5.0): ≤ 80 µg/mL; solubility [3]: < 300 µg/mL

Compound | Measured or Calculated pKas ([1]; first value listed in the cell) | Measured or Calculated pKas [1, 5] | also measured
CCOc1cc2ncc(C#N)c(Nc3ccc(OCc4ccccn4)c(Cl)c3)c2cc1NC(=O)/C=C/CN(C)C [Neratinib, neratinib] | – | – | antitumor activity in carcinoma cell lines [4]: showed antitumor activity; HER2 autophosphorylation (HER2 autophosphorylation): reduces; EGFR autophosphorylation (EGFR autophosphorylation): reduces; downstream AKT signaling pathway (AKT signaling pathway): reduces; downstream MAPK signaling pathway (MAPK signaling pathway): reduces
CC1COc2c(N3CCN(C)CC3)c(F)cc3c(=O)c(C(=O)O)cn1c23 (stereo not drawn) [Ofloxacin] | 6.22 ± 0.05 | 7.81 ± 0.08 | –
COc1ccc2[nH]c([S+]([O-])Cc3ncc(C)c(OC)c3C)nc2c1 (stereo not drawn) [Omeprazole] | 4.14 | 8.90 | –
C=CCOc1ccccc1OCC(O)CNC(C)C (stereo not drawn) [Oxprenolol] | 9.62 | – | –
CN(C)[C@@H]1C(O)=C(C(N)=O)C(=O)[C@@]2(O)C(O)=C3C(=O)c4c(O)cccc4[C@@](C)(O)[C@H]3[C@H](O)[C@@H]12 [Oxytetracycline] | 3.04 | 8.00 | –
Cc1ccc(Nc2nccc(N(C)c3ccc4c(C)n(C)nc4c3)n2)cc1S(N)(=O)=O.Cl [Pazopanib HCL] | 2.1 | 6.4 | Measured or Calculated pKas ([1]; third value listed in the cell): 10.2
CCn1cc(C(=O)O)c(=O)c2cnc(N3CCNCC3)nc21 [Pipemidic acid] | 5.42 ± 0.05 | 8.18 ± 0.09 | –
CC(=O)Nc1ccc(OCC(O)CNC(C)C)cc1 (stereo not drawn) [Practolol] | 9.41 | – | –
CCN(CC)CCOC(=O)c1ccc(N)cc1 [Procaine] | 2.28 ± 0.08 | 9.02 ± 0.01 | –
CC(C)NCC(O)COc1cccc2ccccc12 (stereo not drawn) [Propranolol] | 9.49 ± 0.2 | – | –
CC[C@H]1OC(=O)[C@H](C)[C@@H](OC2C[C@@](C)(OC)C(O)C(C)O2)[C@H](C)[C@@H](O[C@@H]2OC(C)CC(N(C)C)C2O)[C@](C)(O)C[C@@H](C)/C(=N\OCOCCOC)[C@H](C)[C@@H](O)[C@]1(C)O (stereo partly drawn) [Roxithromycin] | 9.17 ± 0.30 | – | –
O=C(O)c1cn(-c2ccc(F)cc2)c2cc(N3CCNCC3)c(F)cc2c1=O [Sarafloxacin] | 5.62 ± 0.08 | 8.18 ± 0.09 | –
CC(=O)NS(=O)(=O)c1ccc(N)cc1 [Sulfacetamide] | 1.95 ± 0.11 | 5.30 ± 0.05 | –
Nc1ccc(S(=O)(=O)Nc2ccc(Cl)nn2)cc1 [Sulfachlorpyridazine] | 1.87 ± 0.30 | 5.45 ± 0.06 | –
Nc1ccc(S(=O)(=O)Nc2ncccn2)cc1 [Sulfadiazine] | 2.10 | 6.28 | –
[H]/N=C(/N)NS(=O)(=O)c1ccc(N)cc1 [Sulfaguanidine] | 1.55 | 11.24 | –
Cc1ccnc(NS(=O)(=O)c2ccc(N)cc2)n1 [Sulfamerazine] | 2.17 | 6.77 | –
Cc1cc(C)nc(NS(=O)(=O)c2ccc(N)cc2)n1 [Sulfamethazine] | 2.28 | 7.42 | –
Cc1nnc(NS(=O)(=O)c2ccc(N)cc2)s1 [Sulfamethizole] | 1.86 ± 0.30 | 5.29 ± 0.04 | –
Nc1ccc(S(=O)(=O)Nc2nccs2)cc1 [Sulfathiazole] | 2.08 | 7.07 | –
CC(C)(C)NC[C@H](O)COc1nsnc1N1CCOCC1 [Timolol] | 9.34 | – | –
COc1cc(Cc2cnc(N)nc2N)cc(OC)c1OC [Trimethoprim] | 3.23 ± 0.30 | 6.76 ± 0.12 | –
Fenbufen | 4.56 | – | –
Tylosin | 3.31 ± 0.30 | 7.50 ± 0.13 | –

Reference: patent US20240335390A9, “PHARMACEUTICAL COMPOSITIONS OF AMORPHOUS SOLID DISPERSIONS AND METHODS OF PREPARATION THEREOF” (Shenzhen Pharmacin Co., Ltd., priority 2020, published 2024)
